Results: patent US20190307141A1, “LACTIC ACID BACTERIAL FERMENTATION PROMOTING AGENT” (MEIJI CO., LTD., priority 2016, published 2019)

What was measured:
Assay type in all cases: cell-based
[1] = system: Streptococcus thermophilus OLS3059 strain; assay: Fermentation promoting effect in UHT sterilized milk, pH of the fermentation liquid over time; details: 43° C.; for fermentation promoting effect (pH of the fermentation liquid over time vs control): test substance 0.05 mmol/kg in UHT sterilized milk, starter 1% (vol/wt); for fermentation promoting effect (pH over time) of mixtures with guanosine in different mixing ratios: adenosine:guanosine 10:0, 7:3, 5:5, 3:7, inosine:guanosine 10:0, 7:3, 5:5, 4:6 (weight ratio), total 0.05 mmol/kg, UHT sterilized milk
Procedure: (§1) The above test substances were each added to UHT sterilized milk (cow milk sterilized by a UHT method (ultrahigh temperature sterilization method); sterilized at 130° C. for 2 seconds), and warmed to 43° C. […] To the warmed UHT sterilized milk, Streptococcus thermophilus OLS3059 strain (accession number FERM BP-10740) was inoculated as a starter in an inoculation amount of 1% (vol/wt) (corresponding to a bacterial cell concentration of 1 to 2×10^7 cfu/mL), and the fermentation was started at 43° C. As a control, the fermentation using UHT sterilized milk without the above test substances was also carried out. Herein, S. thermophilus OLS3059 strain was cultured using MRS (Difco) at 37° C. for 16 hours for preparation of the bacterial cells to be used in the fermentation below. After culturing using MRS, the bacterial cells were collected by centrifugation (8,000 g for 5 minutes), and then suspended into 0.8% sodium chloride solution. The resulting bacterial cell suspension (bacterial cell concentration of 1 to 2×10^9 cfu/mL) was used as a starter. In the following Examples using S. thermophilus, a S. thermophilus bacterial suspension prepared according to the same method as the present Example was used as a starter, unless otherwise stated.
The pH of the fermentation liquid was measured over time. A decrease in the pH in the lactic acid bacteria culture medium and the fermentation liquid indicates an increase in the amount of lactic acid production associated with the lactic acid bacterial fermentation and is used as an indicator of the progress degree of the lactic acid bacterial fermentation. […]
In this test, a 10 mM solution of each of the test substances (purines) in 0.1N NaOH was added to UHT sterilized milk in an amount such that the concentration of the test substance in the UHT sterilized milk was 0.05 mmol/kg, whereby UHT sterilized milk supplemented with the test substance was prepared. Additionally, as a control, the fermentation using UHT sterilized milk without the test substances (purines) was also carried out.
UHT sterilized milk supplemented with adenine which is a purine base, or a derivative thereof that is adenosine, deoxyadenosine, or adenylic acid (adenosine monophosphate; AMP) added as a test substance, was warmed to 43° C., subsequently S. thermophilus OLS3059 strain was inoculated as a starter in an amount of 1% (vol/wt), and the fermentation was started at 43° C. The pH of the fermentation liquid was measured over time. […]
The fermentation promoting effect on S. thermophilus was examined by the same method as described in Example 2, except that mixtures of adenosine and guanosine in different mixing ratios or mixtures of inosine and guanosine in different mixing ratios were used as test substances.

[2] = system: Lactobacillus johnsonii OLL2725; assay: Fermentation promoting effect in UHT sterilized milk with casein-hydrolyzed peptide, pH over time; details: adenylic acid 0.05 mmol/kg or 1:1 mixture 0.025% (wt/wt); UHT sterilized milk with 0.2% casein-hydrolyzed peptide, 43° C.
[3] = system: Lactobacillus gasseri OLL2716; assay: Fermentation promoting effect in UHT sterilized milk, pH over time; details: adenylic acid 0.05 mmol/kg or 1:1 mixture 0.025% (wt/wt); UHT sterilized milk with 0.2% casein-hydrolyzed peptide, 43° C.
Procedure: as §1
(§2) The pH of the fermentation liquid was measured over time. A decrease in the pH in the lactic acid bacteria culture medium and the fermentation liquid indicates an increase in the amount of lactic acid production associated with the lactic acid bacterial fermentation and is used as an indicator of the progress degree of the lactic acid bacterial fermentation.
(§3) Starters (bacterial suspensions) were prepared from the respective bacterial strains by the same method as described in Example 1. The starter was inoculated in an inoculation amount of 1% (vol/wt). Except for these points, the fermentation promoting effect was evaluated in the same manner as in Example 1.
(§4) The preparation method and the inoculation amount (%) of the starter are as described in Example 1. Except for these points, the fermentation promoting effect was evaluated in the same manner as in Example 1.

[4] = system: Lactobacillus delbrueckii subsp. bulgaricus OLL1073R-1; assay: as above; details: adenylic acid 0.05 mmol/kg or 1:1 mixture 0.025% (wt/wt); UHT sterilized milk with 0.2% casein-hydrolyzed peptide, 43° C.
Procedure: as §1, §2, §3, §4

[5] = system: Lactobacillus helveticus OLL1482; assay: as above; details: adenylic acid 0.05 mmol/kg or 1:1 mixture 0.025% (wt/wt); UHT sterilized milk with 0.2% casein-hydrolyzed peptide, 43° C.
Procedure: as §1, §2, §3, §4

[6] = system: Leuconostoc lactis OLS5167; assay: as above; details: adenylic acid 0.05 mmol/kg or 1:1 mixture 0.025% (wt/wt); UHT sterilized milk with 0.2% casein-hydrolyzed peptide, 43° C.
Procedure: as §1, §2, §3, §4

[7] = system: Lactococcus lactis subsp. lactis OLS3445; assay: as above; details: adenylic acid 0.05 mmol/kg or 1:1 mixture 0.025% (wt/wt); UHT sterilized milk with 0.2% casein-hydrolyzed peptide, 43° C.
Procedure: as §1, §2, §3, §4

[8] = system: Lactobacillus acidophilus OLL1836; assay: Fermentation promoting effect in UHT sterilized milk with casein-hydrolyzed peptide, pH over time; details: adenylic acid 0.05 mmol/kg or 1:1 mixture 0.025% (wt/wt); UHT sterilized milk with 0.2% casein-hydrolyzed peptide, 43° C.

In the case of Nc1ncnc2nc[nH]c12 [adenine], the “fermentation promoting effect (pH of the fermentation liquid over time vs control)” value [1] is reported as “notable fermentation promoting effects”.

For Nc1ncnc2c1ncn2[C@@H]1O[C@H](CO)[C@@H](O)[C@H]1O [adenosine], the “fermentation promoting effect (pH over time) of mixtures with guanosine in different mixing ratios” value [1] was “exhibit the fermentation promoting effect in a concentration-dependent manner” and the “fermentation promoting effect (pH of the fermentation liquid over time vs control)” value [1] was “notable fermentation promoting effects”.

With Nc1ccn([C@@H]2O[C@H](CO)[C@@H](O)[C@H]2O)c(=O)n1 [cytidine] the “fermentation promoting effect (pH of the fermentation liquid over time vs control)” value [1] was “did not exhibit the fermentation promoting effects”.

Nc1cc[nH]c(=O)n1 [cytosine] was tested, and the “fermentation promoting effect (pH of the fermentation liquid over time vs control)” value [1] was “did not exhibit the fermentation promoting effects”.

For Nc1ncnc2c1ncn2[C@H]1C[C@H](O)[C@@H](CO)O1 [deoxyadenosine], the “fermentation promoting effect (pH of the fermentation liquid over time vs control)” value [1] was “notable fermentation promoting effects”.

For Nc1nc2c(ncn2[C@H]2C[C@H](O)[C@@H](CO)O2)c(=O)[nH]1 [deoxyguanosine], the “fermentation promoting effect (pH of the fermentation liquid over time vs control)” value [1] was “did not exhibit the fermentation promoting effects”.

For OC[C@H]1O[C@@H](n2cnc3c(O)ncnc32)C[C@@H]1O [deoxyinosine], the “fermentation promoting effect (pH of the fermentation liquid over time vs control)” value [1] was “notable fermentation promoting effects”.

For Nc1nc2nc[nH]c2c(=O)[nH]1 [guanine], the “fermentation promoting effect (pH of the fermentation liquid over time vs control)” value [1] was “did not exhibit the fermentation promoting effects”.

With Nc1nc2c(ncn2[C@@H]2O[C@H](CO)[C@@H](O)[C@H]2O)c(=O)[nH]1 [guanosine] the “fermentation promoting effect (pH over time) of mixtures with guanosine in different mixing ratios” value [1] was “does not exhibit the fermentation promoting effect” and the “fermentation promoting effect (pH of the fermentation liquid over time vs control)” value [1] was “did not exhibit the fermentation promoting effects”.

O=c1[nH]cnc2nc[nH]c12 [hypoxanthine] was tested, and the “fermentation promoting effect (pH of the fermentation liquid over time vs control)” value [1] was “notable fermentation promoting effects”.

In the case of OC[C@H]1O[C@@H](n2cnc3c(O)ncnc32)[C@H](O)[C@@H]1O [inosine], the “fermentation promoting effect (pH over time) of mixtures with guanosine in different mixing ratios” value [1] is reported as “exhibit the fermentation promoting effect in a concentration-dependent manner” and the “fermentation promoting effect (pH of the fermentation liquid over time vs control)” value [1] is reported as “notable fermentation promoting effects”.

In the case of Cc1cn([C@H]2C[C@H](O)[C@@H](CO)O2)c(=O)[nH]c1=O [thymidine], the “fermentation promoting effect (pH of the fermentation liquid over time vs control)” value [1] is reported as “did not exhibit the fermentation promoting effects”.

For Cc1c[nH]c(=O)[nH]c1=O [thymine], the “fermentation promoting effect (pH of the fermentation liquid over time vs control)” value [1] was “did not exhibit the fermentation promoting effects”.

For O=c1cc[nH]c(=O)[nH]1 [uracil], the “fermentation promoting effect (pH of the fermentation liquid over time vs control)” value [1] was “did not exhibit the fermentation promoting effects”.

For O=c1[nH]c(=O)c2[nH]c(=O)[nH]c2[nH]1 [uric acid], the “fermentation promoting effect (pH of the fermentation liquid over time vs control)” value [1] was “did not exhibit the fermentation promoting effects”.

In the case of O=c1ccn([C@@H]2O[C@H](CO)[C@@H](O)[C@H]2O)c(=O)[nH]1 [uridine], the “fermentation promoting effect (pH of the fermentation liquid over time vs control)” value [1] is reported as “did not exhibit the fermentation promoting effects”.

For O=c1[nH]c(=O)c2[nH]cnc2[nH]1 [xanthine], the “fermentation promoting effect (pH of the fermentation liquid over time vs control)” value [1] was “did not exhibit the fermentation promoting effects”.

With adenylic acid [AMP] the “fermentation promoting effect (pH over time vs control)” value [2] was “shown in all the strains tested”, the “fermentation promoting effect (pH of the fermentation liquid over time vs control)” value [1] was “notable fermentation promoting effects” and the “fermentation promoting effect (pH over time vs control)” value [3] was “shown in all the strains tested”. The “fermentation promoting effect (pH over time vs control)” value [4] was “shown in all the strains tested”, the “fermentation promoting effect (pH over time vs control)” value [5] was “shown in all the strains tested” and the “fermentation promoting effect (pH over time vs control)” value [6] was “shown in all the strains tested”. The “fermentation promoting effect (pH over time vs control)” value [7] was “shown in all the strains tested” and the “fermentation promoting effect (pH over time vs control)” value [8] was “shown in all the strains tested”.
